Data set [1] deals with pernicious anemia patients presenting with tobacco amblyopia (optic neuropathy). As to conditions: four patients; parenteral; cyanocobalamin 0.25-1 mg per month, then changed to hydroxocobalamin; cited from earlier work.
Another data set has as its system geriatric patients. As to conditions: cited from earlier work.
For data set [2] the following is noted: cited from earlier work.
For data set [3] the following is noted: series of up to 12 injections with 5 mg; cited from earlier work.
Data set [4] deals with sleep-waking rhythm disorders. Conditions: 1.5 to 3 mg/day for 8 weeks, n=13; cited from earlier work.
In data set [5] the test system is recurrent aphthous stomatitis (RAS) patients. As to conditions: cited from earlier work.
For data set [6] the test system is unchanged. In words: Double-blind, placebo-controlled, randomized clinical trial of vitamin B12 in RAS. Format: in vivo, human.
For data set [7] the test system is unchanged. In words: Clinical experience: 15 RAS patients treated with vitamin B12 over four years. Format: in vivo, human. As for the experimental part:
Fifteen patients suffering from RAS were treated with vitamin B12 in our clinics over a period of four years. In most cases they have presented to the clinic with unrelated symptoms, and the oral ulcers were incidental findings on physical examination. Patients were asked whether oral ulcers were a recurring problem. Before initiating vitamin B12 therapy, a complete blood count was done and plasma vitamin B12 and folic acid levels were assessed by routine procedures.
We used one of two therapeutic regimens: • IM injections of vitamin B12 (1000 mcg weekly for the first month, and then 1000 mcg monthly as maintenance therapy) for patients with serum vitamin B12 level below 100 pg/ml, for patients with peripheral neuropathy or macrocytic anemia, and for patients coming from a low socioeconomic level (in Israel, IM vitamin B12 treatment is cheaper than oral vitamin B12). • 2. One sublingual vitamin B12 tablet (1000 mcg) per day. • No other treatment was given for RAS throughout the treatment and follow-up periods. The follow-up period ranged from 3 months to 4 years.

The test system of a further data set is dialysis patients. As to conditions: cited from earlier work.

Entries after “also recorded” stand apart in the source; their conditions may differ.

As for cyanocobalamin, in [1], the “Effect on haematological and visual abnormalities” value was “restored the haematological, but not the visual abnormalities”. Further, in the data set on geriatric patients (1 mg intramuscular weekly for 1 month, then monthly for minimum 6 months), the Cognitive functions entry is given as “cognitive recovery in some patients”. For the same substance, in the data set with geriatric patients (1 mg intramuscular weekly then monthly), the Adverse effects result is “no adverse effects were reported”. Also, the “Carcinogenic, mutagenic or teratogenic potential” value in [2] (Ellenbogen & Cooper, 1991) is reported as “no reports attributing carcinogenic or mutagenic or teratogenic potential”.

As for hydroxocobalamin, the “Effect on haematological and visual abnormalities” value in data set [1] was “the visual impairment also improved”. Also, in data set [3], the “Acne formation (cases)” value was “Ten”.

With vitamin B12 (cobalamin), the Adverse effects result in data set [4] is reported as “no adverse effects recorded”; in the data set with dialysis patients (2.5 mg vitamin B12 in multivitamin preparation, 3 years) it was “no adverse effects were reported”. Moreover, the “Clinical response of RAS to vitamin B12 administration” value in [5] (three patients with low serum vitamin B12) was “rapid improvement and complete recovery within several weeks”. The “Recurrence of RAS at six months' follow up” value in data set [5] (three patients) is “no recurrence of RAS”. Also, the “Safety and effectiveness of vitamin B12 therapy for RAS” value in [6] (double-blind, placebo-controlled, randomized) is “confirmed the safety and effectiveness; also recorded: established the safety and effectiveness”. Further, the “Dependence of patient outcome on initial level of vitamin B12” value in [6] (pain, number of ulcers, duration of outbreak) is given as “did not depend on initial level of vitamin B12”. Also, in data set [7] (2 deficient, 3 marginal, 10 normal level patients), the “Outcome of treatment by initial vitamin B12 level (deficient or borderline vs normal)” value is “no difference in the outcome of treatment”. Besides, the “Frequency of RAS during treatment (episodes/month), Mean” value in data set [7] (15 RAS patients, IM 1000 mcg weekly then monthly or sublingual 1000 mcg per day, mean treatment 10.8 ± 9.7 months, before treatment 1.5 ± 1.2) turned out to be 0.1 ± 0.3 episodes/month. Also, in data set [7] (15 RAS patients, before treatment range 0.3-4.0), the “Frequency of RAS during treatment (episodes/month), Range” value is 0-1.0 episodes/month. In addition, the “Aphthous ulcers in two non-adherent patients once they received regular IM injections” value in [7] (IM vitamin B12) is on record as “disappeared completely”. Also, the “Patients reporting pronounced reduction in the frequency and severity of RAS episodes” value in data set [7] (of 15 patients) is given as “four”. In addition, in the data set on dialysis patients (106 patients, multivitamin preparation with 2.5 mg vitamin B12 at end of each dialysis period during 3 years), the “Serum vitamin B12 levels at the end of the treatment period” value is reported as 4 times greater than normal. Besides, the “Adverse effects of long-term oral and parenteral supplementation” value in data set [2] (1-5 mg every fortnight or month, up to at least 5 years, patients with compromised absorption) is recorded as “without any identified adverse effects”. Also, in data set [2] (healthy individuals, EC Scientific Committee on Food opinion), the “Adverse effects of excess vitamin B12 intake from food or supplements” value is reported as “no adverse effects”. The “Adverse effects in replacement therapy” value in data set [2] (oral or intramuscular dosages between 1-5 mg) was “no supportive evidence of adverse effects”. Besides, the “Adverse effects of prolonged oral treatment” value in data set [2] (up to 1000 mcg/day orally, patients with compromised B12 absorption) is recorded as “adverse effects have not been reported”.

(Values after patent publication US20100130441A1, “USE OF VITAMIN B12 FOR TREATMENT OF MUCOSAL LESIONS” (priority 2007, published 2010).)
